We go through 4 compounds from patent US5972598A, “Methods for preventing multidrug resistance in cancer cells” (priority 1995, dated 1999).

Entries after “also recorded” stand apart in the source; their conditions may differ. Where two headings read alike, the source gives them in different places.

The test system of data set [1] is hormone-refractory prostate cancer. The following applies: continuous infusion, peak of 300 μg/ml at end of 14 days; cited from earlier work.
The subject of data set [2] is MDR1. In kind it is cell-based, human. On the procedure:
(§1) Neomycin sulfate (Calbiochem) was dissolved in sterile, deionized water.
(§2) P-glycoprotein expression on the cell surface was analyzed using a P-glycoprotein-specific mouse IgG2a monoclonal antibody (mAB) UIC2 (Mechetner and Roninson, 1992, Proc. Natl. Acad. Sci. USA 89:5824-5828). Mouse IgG2a isotype control antibody was obtained from Sigma. For staining of PBL with UIC2 mAB or isotype control, 10^6 cells were stained at 4° C. with 10 μg of the antibody for 30 minutes and, after two washes, stained for 30 minutes with 10 μg of FITC-conjugated goat anti-mouse IgG2a antibody (Fisher Scientific, Fairlawn, N.J.), diluted 1:2 with PBS plus 2% FCS. Cells were then washed twice with ice-cold PBS plus 2% FCS, stained with PI and kept on ice until analysis. Essentially the same protocol was used for staining of other cell types except that 2 μg of the secondary antibody were used per 10^6 cells. In some experiments, phycoerythrine (PE)-conjugated goat anti-mouse IgG2a was used as the secondary antibody; no PI was added in such cases. Flow cytometric analysis was conducted on a Coulter Epics 753 Flow Cytometer.
(§3) RNA was extracted from approximately 10^6 cells by a small-scale sodium dodecyl sulfate extraction procedure (Peppel and Baglioni, 1990, BioTechniques 9:711-713). In the alternative, RNA was isolated from cells using the TRIzol method (commercially available from GIBCO/BRL). cDNA synthesis and polymerase chain reaction (PCR) amplification of MDR1 and β2 -microglobulin cDNA sequences were carried out essentially as described (Noonan et al., 1990, Proc. Natl. Acad. Sci. USA 87:7160-7164; Noonan and Roninson, 1991, pp. 319-333 In Roninson (Ed.), Molecular and Cellular Biology of Multidrug Resistance in Tumor Cells, Plenum Press, New York). Briefly, cDNA was prepared using the method of Krug and Berger (1987, Meth. Enzymol. 152: 316-324), with the modification that random hexamers were substituted for oligo(dT) as primers for cDNA synthesis. (Commercially-available kits (for example, from GIBCO/BRL, Gaithersburg, Md.) can be advantageously modified for making cDNA using random hexamers.) PCR is then performed using the following primers: […]
(§4) (where β2 M represents β2 microglobulin). PCR was performed for β2 M experiments under a regime consisting of 1 cycle comprising denaturation at 94° C. for 3 minutes, primer annealing at 60° C. for 30 seconds, and primer extension at 72° C. for 1 minute, followed by 19 cycles comprising denaturation at 94° C. for 30 seconds, primer annealing at 60° C. for 30 seconds, and primer extension at 72° C. for 1 minute, followed by a final cycle comprising denaturation at 94° C. for 30 seconds, primer annealing at 60° C. for 30 seconds, and primer extension at 72° C. for 5 minutes. MDR1 cDNA sequences were amplified using the identical protocol as for β2 M, but extending the amplification from 19 cycles to 25 cycles. In addition, the cDNA-PCR amplification protocol contained the following modifications: (i) Taq DNA polymerase was added to the PCR mixtures after initial heating of the samples to 94° C. (ii) The yield of the β2 -microglobulin-specific band, obtained after 22-28 cycles of PCR, was used as the primary criterion for equalizing the starting amounts of the cDNA templates in different preparations, in order to account for differential RNA degradation in cells subjected to different types of treatment. […] PCR products were detected by autoradiography.
MDR1 gene expression was evaluated by a functional assay for Rh123

Data set [3] concerns P-glycoprotein. Briefly: UIC2 antibody staining of P-glycoprotein on the cell surface. In kind it is cell-based. The following applies: human PBL. As for the experimental part:
as §2
To determine if the observed effect of PKC stimulants on P-glycoprotein activity could be due to an increase in P-glycoprotein expression, untreated and TPA-treated PBL were stained by indirect immunofluorescence labeling with a monoclonal antibody UIC2 that recognized an extracellular epitope of P-glycoprotein encoded by the human MDR1 gene. […]

Data set [4] concerns the target P-glycoprotein (Homo sapiens, UniProt P08183). Briefly: Rh123 accumulation assay of P-glycoprotein activity in human PBL. The following applies: human PBL. As for the experimental part:
KG1 cell line was maintained in Iscove's modified Dulbecco medium with 20% fetal calf serum (FCS) and 2 mM L-glutamine, 100 units/ml penicillin and 100 μg/ml streptomycin (GIBCO Laboratories, Grand Island, N.Y.).
A functional assay was used to detect changes in P-glycoprotein activity in human PBL treated with different agents that induce lymphoid differentiation or activation, based on flow cytometric analysis of cellular accumulation of Rh123, which is a P-glycoprotein-transported fluorescent mitochondrial dye. In this assay, cells expressing little or no P-glycoprotein stain brightly with Rh123, whereas cells with higher levels of P-glycoprotein activity appear Rh123-dull. […] Since the best-known cellular effect of TPA is the stimulation of PKC, it was also tested whether DOG, a cell-permeable diacylglycerol and a physiological stimulant of PKC, would have an effect on Rh123 accumulation in PBL.

The subject of data set [5] is MDR1. Briefly: cDNA-PCR / flow cytometric analysis of MDR1 induction by PKC agonists. Type of data set: cell-based, human. As for the experimental part:
as §1, §2, §3, §4
In general terms: In flow cytometry, cells or beads pass a laser one at a time.

The subject of data set [6] is MDR1. On the set-up: key to the marks not given beside the values.
Data set [7] concerns MDR1. Briefly: Inhibition of cytotoxic drug (Ara-C) induced MDR1 expression by protein kinase inhibitors. The following applies: for inhibition of Ara-C induced MDR1 expression: 5 μM. Type of data set: cell-based, human.
Another data set concerns protein kinases. To be noted: 10-fold weaker than H7; Pelosin et al., 1990; cited from earlier work.
For the next data set, the system named is H9 cells. Briefly: Cellular toxicity in H9 cells. To be noted: concentrations higher than 5 μM.

Sequence of P-glycoprotein (Homo sapiens, UniProt P08183) (P08183 whole entry): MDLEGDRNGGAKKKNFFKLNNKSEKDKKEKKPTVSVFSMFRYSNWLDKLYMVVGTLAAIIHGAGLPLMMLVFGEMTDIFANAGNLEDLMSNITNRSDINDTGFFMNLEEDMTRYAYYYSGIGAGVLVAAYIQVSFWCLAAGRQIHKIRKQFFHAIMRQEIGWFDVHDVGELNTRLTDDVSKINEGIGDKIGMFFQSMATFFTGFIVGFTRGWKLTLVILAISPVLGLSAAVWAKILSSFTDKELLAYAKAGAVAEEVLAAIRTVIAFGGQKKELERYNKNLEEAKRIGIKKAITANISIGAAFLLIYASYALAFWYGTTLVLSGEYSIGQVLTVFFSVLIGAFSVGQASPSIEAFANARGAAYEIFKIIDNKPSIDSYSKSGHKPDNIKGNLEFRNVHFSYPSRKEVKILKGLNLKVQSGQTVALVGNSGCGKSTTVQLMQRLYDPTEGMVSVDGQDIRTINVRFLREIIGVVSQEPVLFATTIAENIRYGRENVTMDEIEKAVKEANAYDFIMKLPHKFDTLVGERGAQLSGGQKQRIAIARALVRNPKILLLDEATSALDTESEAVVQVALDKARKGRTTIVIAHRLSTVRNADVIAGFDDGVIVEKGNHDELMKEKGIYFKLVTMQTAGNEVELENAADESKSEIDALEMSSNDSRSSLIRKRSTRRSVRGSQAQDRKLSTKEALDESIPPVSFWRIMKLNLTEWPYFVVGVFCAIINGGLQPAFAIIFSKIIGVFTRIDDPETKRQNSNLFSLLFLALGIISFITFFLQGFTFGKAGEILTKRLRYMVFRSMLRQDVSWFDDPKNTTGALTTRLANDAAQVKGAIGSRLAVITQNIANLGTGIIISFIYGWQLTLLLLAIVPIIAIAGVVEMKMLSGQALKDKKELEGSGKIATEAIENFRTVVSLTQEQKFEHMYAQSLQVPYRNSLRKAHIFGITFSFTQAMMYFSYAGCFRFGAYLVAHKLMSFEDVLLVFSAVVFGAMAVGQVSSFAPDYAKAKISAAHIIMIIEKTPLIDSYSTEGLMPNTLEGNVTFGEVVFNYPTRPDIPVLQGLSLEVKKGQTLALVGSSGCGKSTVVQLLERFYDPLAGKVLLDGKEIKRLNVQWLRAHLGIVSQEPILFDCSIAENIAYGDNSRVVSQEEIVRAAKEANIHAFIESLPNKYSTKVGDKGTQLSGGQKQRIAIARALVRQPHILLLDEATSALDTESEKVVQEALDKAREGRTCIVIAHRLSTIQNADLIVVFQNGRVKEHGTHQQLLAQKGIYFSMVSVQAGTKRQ

With `Cc1ccc(C(=O)Nc2ccc(S(=O)(=O)O)c3cc(S(=O)(=O)O)cc(S(=O)(=O)O)c23)cc1NC(=O)c1cccc(NC(=O)Nc2cccc(C(=O)Nc3cc(C(=O)Nc4ccc(S(=O)(=O)O)c5cc(S(=O)(=O)O)cc(S(=O)(=O)O)c45)ccc3C)c2)c1` [suramin], in [1], the “activity in hormone-refractory prostate cancer” value is listed as “shown activity in hormone-refractory prostate cancer”.
With `CCCCCCCCCCCCCC(=O)O[C@@H]1[C@@H](C)[C@@]2(O)[C@@H](C=C(CO)C[C@]3(O)C(=O)C(C)=C[C@@H]23)[C@@H]2C(C)(C)[C@]12OC(C)=O` [TPA, 12-o-tetradecanoylphorbol-13-acetate], the “MDR1 expression, TPA-treated” value is on record as “-” with MDR1 [2]; “++” with MDR1 [2] (0.001 ug/mL); “++” with MDR1 [2] (0.01 ug/mL); “+++” in the data set on MDR1 [2] (0.1 ug/mL); “++” with MDR1 [2] (EJ (bladder carcinoma), untreated +, assay F); “-” with MDR1 [2] (HT 1080 (fibrosarcoma), untreated -, assays F, R). The “MDR1 expression, TPA-treated” value in the data set on MDR1 [2] (MCF-7 (breast carcinoma), untreated -, assay R) was “+”; in the data set with MDR1 [2] (Molt-4 (T-cell leukemia), untreated -, assay F) it was “-”; in the data set with MDR1 [2] (THP-1, untreated -, assay F), “-”; in the data set on MDR1 [6] it was “++”; in the data set with MDR1 [6] (mouse FL4 (thymoma), untreated ++, assay F), “+++”. For the same compound, the “P-glycoprotein on the cell surface” value in the data set with P-glycoprotein [3] is listed as “markedly increased the levels of P-glycoprotein on the cell surface”. On P-glycoprotein [4], the “effect on P-glycoprotein activity (Rh123 accumulation)” value is recorded as “significant increase in the number of Rh123-dull cells”. Also, the “increase of MDR1 expression” value with MDR1 [5] (EJ bladder carcinoma cells) and with MDR1 [5] (MCF-7 breast carcinoma cells) was “increase of MDR1 expression” in each case. Also, the “induction of MDR1 mRNA and P-glycoprotein” value in the data set with MDR1 [5] (H9 cells) is “clear-cut induction of MDR1 mRNA and P-glycoprotein”; with MDR1 [5] (K562 cells), “clear-cut induction of MDR1 mRNA and P-glycoprotein”. Also, the “time after addition at which MDR1 mRNA became detectable” value with MDR1 [5] (H9 cells, TPA) was 2 h. Moreover, in the data set on MDR1 [5] (H9 cells, TPA), the “time until which MDR1 mRNA continued to increase” value was no less than 5 h. Moreover, the “MDR1 expression induced by TPA alone” value in the data set with MDR1 [5] (H-9 cells, 10 ng/ml overnight) was “efficiently induced readily detectable MDR1 expression”. The “MDR1 mRNA levels” value with MDR1 [5] (human PBL, PCR) is “corresponding increase in MDR1 mRNA levels”.
On to `CC1CN(S(=O)(=O)c2cccc3cnccc23)CCN1` (stereo not drawn) [IsoH7], for which, in the data set with MDR1 [7] (IsoH7), the “inhibition of drug-induced MDR1 expression” value is given as “No significant inhibition”. The “effect on protein kinases relative to H7” value in the data set on protein kinases was 10 fold.
As to `CCCCCCCCCCCCC/C=C/[C@H](O)[C@@H](N)CO` (relative stereo) [D,L-threo-sphingosine], the “inhibition of Ara-C induced MDR1 expression” value with MDR1 [7] is on record as “little or no capacity to inhibit Ara-C induced MDR1 expression; also recorded: ineffective in inhibiting Ara-C induced MDR1 expression”; in the data set with MDR1 [7] (H9 cells, 25 μM Ara-C 10 h), “-”. Moreover, the cellular toxicity entry in the data set with H9 cells is on record as “higher concentrations induced cellular toxicity”.
